Data set [1] in a line: Metabolic stability in rat liver S9 fraction assessed as compound remaining at 3 uM measured at 60 mins by LC-MS/MS analysis. The format is ADME, subcellular. The conditions noted are these: read-out: Stability.
Data set [2] can be described thus: Metabolic stability in human liver S9 fraction assessed as compound remaining at 3 uM measured at 60 mins by LC-MS/MS analysis. Format: ADME, subcellular. The conditions noted are these: read-out: Stability.

The results in this text go back to ChEMBL document CHEMBL5137098, “Discovery of Substituted Di(pyridin-2-yl)-1,2,4-thiadiazol-5-amines as Novel Macrofilaricidal Compounds for the Treatment of Human Filarial Infections” (J Med Chem, 2022).

Take `Cc1cccnc1Nc1nc(-c2ccc(C(=O)N(C)C)cn2)ns1`: the remaining at 1 h, 3 µM in data set [1] came to 94%; in data set [2], 97%.
As to `COc1ccc(Nc2nc(-c3ccccn3)cs2)nc1`, the values for the remaining at 1 h, 3 µM in data set [1] and in data set [2] were 51% and 59%, respectively.
For `Cc1cccnc1N(C)c1nc(-c2ccc(OC(C)C)cn2)ns1`, in that order: 81% and 96%.
On to `Cc1cccnc1Nc1nc(-c2cc(C#N)c(OC(C)C)cn2)ns1`, for which the remaining at 1 h, 3 µM turned out to be 84% in data set [1] and 100% in data set [2].
Turning to `Cc1cccnc1N(c1nc(-c2ccc(OC(C)C)cn2)ns1)C(C)C`, the remaining at 1 h, 3 µM in data set [1] stood at 60%; in data set [2], 79%.
Turning to `c1ccc(Nc2nc(-c3ccccn3)ns2)nc1`, the remaining at 1 h, 3 µM in data set [1] and in data set [2] was 83% in each case.
As for `Cc1cccnc1Nc1nc(-c2ccc(OC3CCN(C4CC4)CC3(F)F)cn2)ns1` (stereo not given), the remaining at 1 h, 3 µM in data set [1] was 32%; in data set [2], 52%.
Regarding `CC(C)Oc1cc(-c2nsc(Nc3ncccc3N(C)C)n2)ncc1C(F)(F)F`, the remaining at 1 h, 3 µM in data set [1] came to 8%; in data set [2], 100%.
As for `Cc1cccnc1Nc1nc(-c2cc(C3CCN(C)CC3)ccn2)ns1`, the remaining at 1 h, 3 µM is 81% in data set [1] and 78% in data set [2].
Regarding `COc1cccnc1Nc1nc(-c2cc(C)ccn2)ns1`, the figures for the remaining at 1 h, 3 µM in data set [1] and in data set [2] were 70% and 72%, respectively.
Consider `Cc1cccnc1Nc1nc(-c2ccc(OC3CC4(C3)CN(C3CC3)C4)cn2)ns1`, for which the remaining at 1 h, 3 µM in data set [1] is 53%; in data set [2] it was 58%.
Consider `Cc1cccnc1Nc1nc(-c2ccc(OC3CCOCC3)cn2)ns1`, for which the remaining at 1 h, 3 µM came to 82% in data set [1] and 84% in data set [2].
For `Cc1cccnc1Nc1nc(-c2ccc(OC3CCOCC3)cn2)no1`, in that order: 85% and 98%.
Turning to `CN1CCC(Oc2ccc(Nc3nc(-c4ccccn4)ns3)nc2)CC1`, the remaining at 1 h, 3 µM came to 99% in data set [1] and 88% in data set [2].
Take `Cc1cccnc1Nc1nc(-c2cc(C(=O)N(C)C)ccn2)ns1`: the remaining at 1 h, 3 µM in data set [1] stood at 78%; in data set [2], 89%.
Consider `CC(C)c1cnc(Nc2nc(-c3ncccc3OC3CC3)ns2)cc1C(F)(F)F`, for which the remaining at 1 h, 3 µM in data set [1] is 93%; in data set [2], 100%.
Regarding `CC(C)Oc1ccc(-c2nsc(N(C)c3ncccc3C(C)C)n2)nc1`, the remaining at 1 h, 3 µM in data set [1] is 4%; in data set [2], 32%.
For the compound `Cc1cccnc1Nc1nc(-c2ccc(C#N)cn2)ns1`, the results for the remaining at 1 h, 3 µM in data set [1] and in data set [2] were 73% and 66%, respectively.
Turning to `CC(C)Oc1ccc(-c2nsc(Nc3cc(C(F)(F)F)c(C(C)C)cn3)n2)nc1`, the remaining at 1 h, 3 µM in data set [1] and in data set [2] was 100% in each case.
With `Cc1cccnc1Nc1nc(-c2cnc(OC(C)C)cn2)ns1`, the values for the remaining at 1 h, 3 µM in data set [1] and in data set [2] were 74% and 81%, respectively.
For `CNc1cccnc1Nc1nc(-c2ccc(OC(C)C)cn2)ns1`, in that order: 73% and 86%.
As to `COc1cccnc1Nc1nc(-c2ccc(OC(C)C)cn2)ns1`, the remaining at 1 h, 3 µM in data set [1] and in data set [2] was 100% throughout.
With `CC(C)c1ccnc(-c2nsc(Nc3ncccc3C(F)(F)F)n2)c1`, the remaining at 1 h, 3 µM in data set [1] worked out at 27%; in data set [2] it was 45%.
Turning to `Cc1ccnc(-c2nsc(Nc3ncccc3C(F)(F)F)n2)c1`, the figures for the remaining at 1 h, 3 µM in data set [1] and in data set [2] were 61% and 56%, respectively.
As for `Cc1cccnc1Nc1nc(-c2cc(C#N)ccn2)ns1`, the values for the remaining at 1 h, 3 µM in data set [1] and in data set [2] were 78% and 65%, respectively.
